Assay results as given in EP4570805A1, “TRICYCLIC COMPOUNDS AND MEDICAL USE THEREOF” (Chia Tai Tianqing Pharmaceutical Group Co., Ltd., priority 2022, dated 2024).

Tests used:
Capan-1 cells = assay: Inhibitory activity for Capan-1 cell proliferation (CCK-8); format: cell-based; settings: 5 days incubation
Description: Capan-1 cells in a well-growing state were collected into a centrifuge tube, adjusted to a cell density of 1.5 × 10^4 cells/mL, and inoculated onto a 96-well plate (100 µL/well). […] Meanwhile, a control was set. After 5 days of incubation in the cell incubator, the assay reagent CCK-8 (manufacturer: Dojindo Laboratories, Beijing; 10 µL/well) was added. After 4 h of incubation in the cell incubator, the absorbance was measured at 450 nm on a PerkinElmer Envision microplate reader. A four-parameter analysis was performed, a dose-response curve was fitted, and IC50 was calculated.

AsPc-1 cells = assay: Inhibitory activity for AsPc-1 cell proliferation (CCK-8); format: cell-based, human
Description: AsPc-1 cells in a well-growing state were collected into a centrifuge tube, adjusted to a cell density of 3 × 10^4 cells/mL, and inoculated onto a 96-well plate (100 µL/well). The compounds were added using a nanoliter pipettor such that the final concentrations of the compounds were 5000 nM-0.31 nM (the addition was performed in duplicate). Meanwhile, a control was set. After 72 h of incubation in the cell incubator, the assay reagent CCK-8 (manufacturer: Dojindo Laboratories; 10 µL/well) was added. After 3 h of incubation in the cell incubator, the absorbance was measured at 450 nm on a PerkinElmer Envision microplate reader. A four-parameter analysis was performed, a dose-response curve was fitted, and IC50 was calculated.

[1] = Homo sapiens, ASPC1, 72 h incubation

| SMILES | IC50 (Capan-1 cells; Homo sapiens, CAPAN-1, 120 h) | IC50 (AsPc-1 cells; [1]) | IC50 (Capan-1 cells) | IC50 (AsPc-1 cells; 72 h incubation) |
| --- | --- | --- | --- | --- |
| C#Cc1c(F)ccc2cc(O)cc(-c3nc4c5c(nc(OC[C@@H]6CC(F)(F)CN6C)nc5c3F)N(C(C)c3cccnc3N)[C@@H](C)CO4)c12 (single isomer, unassigned) [Example 148] | < 0.1 µM | ≤ 0.1 µM | – | – |
| [2H]C([2H])(Oc1nc2c3c(nc(-c4cc(O)cc5ccc(F)c(C#C)c45)c(F)c3n1)OCCN2C(C)c1cccnc1N)[C@@]12CCCN1C[C@H](F)C2 (some centres unmarked) [Example 51] | < 0.1 µM | ≤ 0.1 µM | – | – |
| C#Cc1c(F)ccc2cc(O)cc(-c3nc4c5c(nc(OCC6(CN7CCOCC7)CC6)nc5c3F)N(C(C)c3cccnc3N)[C@@H](C)CO4)c12 (single isomer, unassigned) [Example 69] | < 0.1 µM | ≤ 0.1 µM | – | – |
| C#Cc1c(F)ccc2cc(O)cc(-c3nc4c5c(nc(OC[C@@]67CCCN6C[C@H](F)C7)nc5c3F)N(C(C)C)C(C)CO4)c12 (some centres unmarked) [Example 49] | – | ≤ 0.1 µM | – | – |
| C#Cc1c(F)ccc2cc(O)cc(-c3nc4c5c(nc(OC[C@@]67CCCN6C[C@H](F)C7)nc5c3F)N(C(C)c3cccnc3N)CCO4)c12 (some centres unmarked) [Example 34] | < 0.1 µM | ≤ 0.1 µM | – | – |
| C#Cc1c(F)ccc2cc(N)cc(-c3nc4c5c(nc(OCC67CCCN6CC(F)C7)nc5c3F)N(C(C)c3cccnc3N)C(C)CO4)c12 (single isomer, unassigned) [Example 54] | – | – | < 0.1 µM | ≤ 0.1 µM |
| C#Cc1c(F)ccc2cc(O)cc(-c3nc4c5c(nc(OC[C@@]67CCCN6C[C@H](F)C7)nc5c3F)N(C(C)(C)C)CCO4)c12 [Example 31] | 0.1 to 0.5 µM | 0.1 to 0.5 µM | – | – |
| C#Cc1c(F)ccc2cc(O)cc(-c3nc4c5c(nc(OCC6(CN(C)C)CC6)nc5c3F)N(C(C)c3cccnc3N)[C@@H](C)CO4)c12 (single isomer, unassigned) [Example 150] | < 0.1 µM | ≤ 0.1 µM | – | – |
| C#Cc1c(F)ccc2cc(O)cc(-c3nc4c5c(nc(OCC67CCCN6CC(F)C7)nc5c3F)N(C(C)c3cccnc3N)C(C)CO4)c12 (single isomer, unassigned) [Example 40] | – | – | < 0.1 µM | ≤ 0.1 µM |
| C#Cc1c(F)ccc2cc(O)cc(-c3nc4c5c(nc(OC[C@@]67CCCN6C[C@H](F)C7)nc5c3F)N(C(C)c3cccnc3N)[C@@H](C)CO4)c12 (some centres unmarked) [Example 38] | < 0.1 µM | ≤ 0.1 µM | – | – |
| [2H]C([2H])(Oc1nc2c3c(nc(-c4cc(O)cc5ccc(F)c(C#C)c45)c(F)c3n1)OC[C@H](C)N2C(C)c1cccnc1N)[C@@]12CCCN1C[C@H](F)C2 (single isomer, unassigned) [Example 71] | < 0.1 µM | ≤ 0.1 µM | – | – |
| [2H]C([2H])(Oc1nc2c3c(nc(-c4cccc5ccc(F)c(C#C)c45)c(F)c3n1)OC[C@H](C)N2C(C)c1cccnc1N)[C@@]12CCCN1C[C@H](F)C2 (single isomer, unassigned) [Example 113] | < 0.1 µM | ≤ 0.1 µM | – | – |
| C#Cc1c(F)ccc2cc(O)cc(-c3nc4c5c(nc(OC[C@@]67CCCN6CC(=C)C7)nc5c3F)N(C(C)c3cccnc3N)[C@@H](C)CO4)c12 (single isomer, unassigned) [Example 178] | – | ≤ 0.1 µM | – | – |
| CC(c1cccnc1N)N1c2nc(OC[C@@]34CCCN3C[C@H](F)C4)nc3c(F)c(-c4cc(O)cc5ccccc45)nc(c23)OC[C@@H]1C (single isomer, unassigned) [Example 118] | < 0.1 µM | ≤ 0.1 µM | – | – |
| CC(c1cccnc1N)N1c2nc(OC[C@@]34CCCN3C[C@H](F)C4)nc3c(F)c(-c4cccc5ccc(F)c(Cl)c45)nc(c23)OC[C@@H]1C (single isomer, unassigned) [Example 124] | < 0.1 µM | ≤ 0.1 µM | – | – |
| C#Cc1c(F)ccc2cc(O)cc(-c3nc4c5c(nc(OC[C@@]67CCCN6C[C@H](F)C7)nc5c3F)N(CC)CCO4)c12 [Example 3] | 0.1 to 0.5 µM | 0.1 to 0.5 µM | – | – |
| C#Cc1c(F)ccc2cc(N)cc(-c3nc4c5c(nc(OCC67CCCN6CC(F)C7)nc5c3F)N(C(C)c3cccnc3N)C(C)CO4)c12 (single isomer, unassigned) [Example 53] | < 0.1 µM | ≤ 0.1 µM | – | – |

| SMILES | IC50 (Capan-1 cells; Homo sapiens, CAPAN-1, 120 h) | IC50 (AsPc-1 cells; [1]) | IC50 (Capan-1 cells) | IC50 (AsPc-1 cells; 72 h incubation) |
| --- | --- | --- | --- | --- |
| CC(c1cccnc1N)N1c2nc(OC[C@@]34CCCN3C[C@H](F)C4)nc3c(F)c(-c4cccc5cccc(Cl)c45)nc(c23)OC[C@@H]1C (some centres unmarked) [Example 115] | < 0.1 µM | ≤ 0.1 µM | – | – |
| C#Cc1c(F)ccc2cc(N)cc(-c3nc4c5c(nc(OCC67CCCN6CCC7)nc5c3F)N(C(C)c3cccnc3N)[C@@H](C)CO4)c12 (single isomer, unassigned) [Example 164] | – | ≤ 0.1 µM | – | – |
| C#Cc1c(F)ccc2cc(O)cc(-c3nc4c5c(nc(OCCN6CC(F)C6)nc5c3F)N(C(C)c3cccnc3N)[C@@H](C)CO4)c12 (single isomer, unassigned) [Example 172] | < 0.1 µM | ≤ 0.1 µM | – | – |
| C#Cc1c(F)ccc2cccc(-c3nc4c5c(nc(OCC67CCCN6CC(F)C7)nc5c3F)N(C(C)c3cccnc3N)C(C)CO4)c12 (single isomer, unassigned) [Example 47] | < 0.1 µM | ≤ 0.1 µM | – | – |
| [2H]C([2H])(Oc1nc2c3c(nc(-c4cccc5ccc(F)c(C#C)c45)c(F)c3n1)OC[C@H](C)N2C(C)c1cccnc1N)[C@@]12CCCN1C[C@H](F)C2 (single isomer, unassigned) [Example 114] | – | – | < 0.1 µM | ≤ 0.1 µM |
| CCc1c(F)ccc2cccc(-c3nc4c5c(nc(OC[C@@]67CCCN6C[C@H](F)C7)nc5c3F)N(C(C)c3cccnc3N)[C@@H](C)CO4)c12 (single isomer, unassigned) [Example 122] | < 0.1 µM | ≤ 0.1 µM | – | – |
| C#Cc1c(F)ccc2cc(O)cc(-c3nc4c5c(nc(OC[C@@H]6C[C@@H](F)CN6C)nc5c3F)N(C(C)c3cccnc3N)[C@@H](C)CO4)c12 (single isomer, unassigned) [Example 146] | < 0.1 µM | ≤ 0.1 µM | – | – |
| C#Cc1c(F)ccc2cc(O)cc(-c3nc4c5c(nc(OCC67CCCN6CC(F)C7)nc5c3F)N(C(C)c3cccnc3N)CCO4)c12 (single isomer, unassigned) [Example 36] | < 0.1 µM | ≤ 0.1 µM | – | – |
| C#Cc1c(F)ccc2cc(O)cc(-c3nc4c5c(nc(OC[C@@]67CCCN6C/C(=C\F)C7)nc5c3F)N(C(C)c3cccnc3N)[C@@H](C)CO4)c12 (single isomer, unassigned) [Example 177] | – | – | < 0.1 µM | ≤ 0.1 µM |
| C#Cc1c(F)ccc2cc(O)cc(-c3nc4c5c(nc(OCCN6CCCC6)nc5c3F)N(C(C)c3cccnc3N)[C@@H](C)CO4)c12 (single isomer, unassigned) [Example 138] | < 0.1 µM | ≤ 0.1 µM | – | – |
| C#Cc1c(F)ccc2cc(O)cc(-c3nc4c5c(nc(OCC67CCCN6CC(F)C7)nc5c3F)N(C(C)c3cccnc3N)C(C)CO4)c12 (single isomer, unassigned) [Example 39] | < 0.1 µM | ≤ 0.1 µM | – | – |
| C#Cc1c(F)ccc2cc(O)cc(-c3nc4c5c(nc(OCC67CCCN6CC(F)C7)nc5c3F)N(CC)C(C)CO4)c12 (single isomer, unassigned) [Example 32] | < 0.1 µM | ≤ 0.1 µM | – | – |
| C#Cc1c(F)ccc2cc(O)cc(-c3nc4c5c(nc(OC[C@@H]6CCCN6C)nc5c3F)N(C(C)c3cccnc3N)[C@@H](C)CO4)c12 (single isomer, unassigned) [Example 67] | < 0.1 µM | ≤ 0.1 µM | – | – |
| C#Cc1cccc2cccc(-c3nc4c5c(nc(OC[C@@]67CCCN6C[C@H](F)C7)nc5c3F)N(C(C)c3cccnc3N)[C@@H](C)CO4)c12 (single isomer, unassigned) [Example 130] | < 0.1 µM | ≤ 0.1 µM | – | – |
| C#Cc1c(F)ccc2cc(O)cc(-c3nc4c5c(nc(OC[C@@H]6C[C@H](F)CN6C)nc5c3F)N(C(C)c3cccnc3N)[C@@H](C)CO4)c12 (single isomer, unassigned) [Example 105] | < 0.1 µM | ≤ 0.1 µM | – | – |
| C#Cc1c(F)ccc2cc(O)cc(-c3nc4c5c(nc(OC[C@@]67CCCN6C/C(=C\F)C7)nc5c3F)N(C(C)c3cccnc3N)[C@@H](C)CO4)c12 (single isomer, unassigned) [Example 176] | < 0.1 µM | ≤ 0.1 µM | – | – |
| C#Cc1c(F)ccc2cc(O)cc(-c3nc4c5c(nc(N6CC(C)(N(C)C)C6)nc5c3F)N(C(C)c3cccnc3N)[C@@H](C)CO4)c12 (single isomer, unassigned) [Example 156] | < 0.1 µM | ≤ 0.1 µM | – | – |
